According to patent publication US8771652B2, “Methods of blocking ultraviolet radiation and promoting skin growth using terpenes and terpenoids” (New York University, priority 2009, dated 2014):
Like-named read-outs stand apart in the source and are kept apart here.

Tests used:
[1] = system: skin of SKH1 hairless mice; test: Sunburn (erythema) prevention by terpenes with solar-spectrum UVR exposure; type: in vivo, mouse; settings: 4 daily 30 microL droplets before 15 minute exposure to 3.0 kJ/m2 UVR
Method: All experiments were performed with female hairless mice (SKH1) utilizing solar spectrum ultraviolet radiation (UVR). Each experiment was performed in triplicate including controls and UVR-exposed mice and included a total of 22 mice per experiment for a total of 66 mice. The protocol included untreated mice, UVR-irradiated mice as controls for the terpene treatments, UVR+terpene mice and terpene-only mice.
Four solar simulating FS-20 fluorescent lamps were used to deliver 3 kJ/m^2 measured by a calibrated International Light UV radiometer at the lamp distance between 20 to 24 cm. The UVR dose was selected to be just above the minimal erythemal dose for producing a ‘sunburn’ reaction in mouse skin (this is very similar to the minimal erythemal dose of fair-skinned humans).
Each terpene was given to each mouse per os (by mouth) in 15-30 μL droplets (˜15-30 μg) via micropipette once each day for 4 consecutive days prior to and/or subsequent to UVR exposure. Animals were observed and photographed every 24 hours for a period of 6-7 days after the irradiation. Each terpene was administered in pure form. […] The UVR exposure of 3 kJ/m^2 was delivered seven (7) days after the last dose was administered. The animals were observed and photographed. […] Liponeate, a triglyceride fraction of coconut oil was used as a diluent. Concentration 1, 10 and 100% were tested. […]

[2] = system: epidermis (keratinocytes, keratin layer) of SKH1 hairless mice; test: Histology of skin after terpene pre-feed and UVR; type: in vivo, mouse; settings: for keratinocyte formation: ingestion, animal models
Method: Histopathological diagnosis was performed on the skin samples.
Animals for the histology and microarray analysis were euthanized 24 hours after 4 days of terpene pre-feed and the UVR exposure. Tissue samples from skin and other organs were frozen and prepared for histological diagnosis and for microarray analysis, which consisted of testing gene expression by utilizing Affymetrix mouse microarray chips containing about 39,000 transcripts with 45,101 probe sets.

[3] = system: gene expression in mouse dorsal skin; test: Affymetrix gene expression microarray of mouse skin after terpene and UVR; type: in vivo; settings: for loricrin and vascular endothelial growth factor (VEGF) genes / matrix metalloproteinases: ingestion, animal models; for inflammation genes induced by UVR: per os daily for 4 days in 30 microL droplets prior to irradiation
Method: Animals for the histology and microarray analysis were euthanized 24 hours after 4 days of terpene pre-feed and the UVR exposure.
Gene expression microarray analysis was performed as follows: RNA was extracted from a 0.1 g sample of mouse skin and an equal quantity of keratinocytes by using the TRIZOL reagent (Invitrogen, Carlsbad, Calif., USA) according to the manufacture's instructions and 200 μg of total RNA was used for the isolation of poly A+ mRNA by using Oligotex mRNA mini columns (QIAGEN, Valencia, Calif., USA). The final centrifugation was performed after the incubation with 1/10 volume of 3.0 M NaOAc, 2.5 volumes of ethanol and 1 μl glycogen (Boehringer Mannheim GmbH, Mannheim, Germany) at −20° C. overnight. Then the pellet was resuspended in diethylpyrocarbonate (DEPC)-treated water. RNA was labeled with biotin and hybridized to a Mouse genome 430—2 GeneChip® microarray (Affymetrix, Inc. Santa Clara, Calif., USA). Data from the Affymetrix mouse expression array chip were imported into the BRB-ArrayTools Version 3.3.0 developed by the Biometric Research Branch of the U.S. National Cancer Institute for normalization and analysis. […] A value of P≦0.001 was chosen as statistically significant. […] For these calculations the entire list of genes on the Affymetrix (mouse 430—2) microarray was used as the reference list.
Mice were treated with either UVR or UVR+beta-damascenone, and samples of tissue were removed from the dorsal skin for RNA extraction and analysis on an Affymetrix Microarray System utilizing mouse whole genome array chips Affy 430—2. The UVR sample served as the control in this preliminary experiment.

[4] = in vivo; cited from earlier work
skin [5] = settings: mouse, in vivo; cited from earlier work
skin [6] = settings: guinea pig, in vivo; cited from earlier work
skin [7] = settings: in vivo; cited from earlier work
skin [8] = settings: in vivo; cited from earlier work; remark: listed apart in the source
breast cancer = settings: rats, without any evidence of toxicity; cited from earlier work
[9] = system: UVB-induced non-melanoma tumors; settings: mouse, in vivo; cited from earlier work
melanoma cells = settings: topical pretreatment but not post-treatment; cited from earlier work
[10] = system: human transplanted pancreatic adenocarcinomas; settings: in vivo; cited from earlier work
colon cancer = settings: rats, 8 mg/kg, p<0.01; cited from earlier work
[11] = at concentrations in normal strength grapefruit juice (approximately 0.0035%, or 35 ppm); cited from earlier work
[12] = system: inflammation-relevant gene expression in rat skin; settings: cited from earlier work

## C/C=C/C(=O)C1=C(C)C=CCC1(C)C [beta-damascenone]
[1]
  cutaneous inflammation and erythema associated with UVR exposure: blocked
[2]; histological observations
  keratinizing layer in the epidermis, terpene+UVR in comparison to UVR: greatly increased
[2]
  keratinocyte formation: increased keratinocyte formation
[3]; UVR+terpene relative to UVR only, p<0.05
  significantly altered up-regulated category at level 4 of the Gene Ontology Tree: epidermal cell differentiation
[3]
  loricrin and vascular endothelial growth factor (VEGF) genes: upregulation
  matrix metalloproteinases: downregulation
  inflammation genes induced by UVR: blocked
[3]; terpene+UVR relative to UVR only
  inflammation-relevant genes: strongly down-regulated
[3]; terpene+UVR relative to UVR only, p<0.05
  number of gene categories significantly down-regulated: 13 categories
[4]
  LD50: greater than 2.0 g/kg
Skin [5]
  skin irritation: No skin irritation
Skin [6]
  skin irritation: No skin irritation
Skin [7]
  skin irritation: No skin irritation
Skin [8]
  phototoxicity or photoallergenity: No phototoxicity or photoallergenity

## C=C(C)[C@@H]1CC=C(CO)CC1 [perillyl alcohol]
Breast cancer
  initiation of breast cancer: almost completely prevented
[9]
  UVB-induced non-melanoma tumors: reduction
Melanoma cells
  levels of UV-induced reactive oxygen species: markedly reduced

## C=C(C)[C@H]1CC=C(C)CC1 [d-limonene]
Breast cancer
  initiation of breast cancer: almost completely prevented

## CC(C)=CCC/C(C)=C/CO [Geraniol]
[10]
  effectiveness against tumor growth relative to perillyl alcohol: about 5 fold

## Oc1ccc(C=Cc2cc(O)cc(O)c2)cc1 [resveratrol]
Colon cancer
  inhibition of colon cancer: 67%

## C=C(C)[C@@H]1CCC2=CC(=O)C[C@@H](C)[C@]2(C)C1 [nootkatone]
[1]
  cutaneous inflammation and erythema associated with UVR exposure: blocked
[2]
  keratinocyte formation: increased keratinocyte formation
[3]
  loricrin and vascular endothelial growth factor (VEGF) genes: upregulation
  matrix metalloproteinases: downregulation
  inflammation genes induced by UVR: blocked
[11]
  toxicity: does not appear to be toxic

## vitamin A
[12]
  inflammation-relevant gene expression alterations caused by x-rays blocked: about 80%
[12]; unirradiated controls
  gene expression in controls: no effect
